These results are taken from patent US10221152B2 (priority 2013, dated 2019).

Values after ≈ are worked out from the molar mass of the structure shown. Structures can show the parent of a compound that is named as a salt. Where two headings read alike, the source gives them in different places.

One series relates to H1N1 WSN viral strain. More on the design: species or system BALB/c mice. To be noted: mouse, in vivo, po.
The subject of series [1] is Influenza A/WSN/33 (H1N1). Nature of the series: microbe, parasite or virus in culture. To be noted: for EC50: read-out: H1N1 WSN EC50. Type of series: cell-based, Influenza A virus.
A further series relates to influenza virus (H3N2). Description: organism not typed. To be noted: for EC50: read-out: H3N2 EC50. Format: cell-based, Influenza A virus.
The test system of the next series is influenza virus (H1N1). Description: organism not typed. Format: cell-based, Influenza A virus.

As to `COc1c(C)c2c(c(O)c1C/C=C(\C)CCC(=O)OCCN1CCOCC1)C(=O)OC2` [MPM-N, mycophenolate mofetil hydrochloride], the “survival rate of mice” value with H1N1 WSN viral strain is 23.3%. For the same compound, the “Minimal Inhibitory Concentration (MIC), WSN” value in series [1] (hydrochloride) was determined as 0.0488 µg/mL.

As a reminder, the EC50 is the midpoint of the concentration-response curve. As for `NC(=O)c1ncn([C@@H]2O[C@H](CO)[C@@H](O)[C@H]2O)n1` [Ribavirin, reference compound], the EC50 in the series with influenza virus (H3N2) stood at 12.5 µg/mL (≈ 51.2 µM); in series [1] (Influenza A virus) it was 3.12 µg/mL (≈ 12.8 µM).

On to `COc1c(C)c2c(c(O)c1C/C=C(\C)CCC(=O)OCCN1CCOCC1)C(=O)OC2` [MPM, 2-morpholinoethyl(E)-6-(1,3-dihydro-4-hydroxy-6-methoxy-7-methyl-3-oxo-5-isobenzofuranyl)-4-methyl-4-hexenoate], for which the toxicity to cells entry with MDCK cells is given as “nontoxic to cells”. Further, the EC50 with influenza virus (H3N2) was found to be 1.56 µg/mL (≈ 3.6 µM); in series [1] (Influenza A virus), 0.098 µg/mL (≈ 0.226 µM). In addition, the MIC in the series on influenza virus (H3N2) (read-out: Minimal Inhibitory Concentration (MIC), H3N2) came to 1.56 µg/mL (≈ 3.6 µM); with influenza virus (H1N1) (read-out: Minimal Inhibitory Concentration (MIC), H1N1) it was 0.195 µg/mL (≈ 0.45 µM); in series [1] (Influenza A virus, read-out: Minimal Inhibitory Concentration (MIC), WSN), 0.097 µg/mL (≈ 0.224 µM). In the series on influenza virus (H1N1), the “survival rate in MDCK cells” value was found to be 75%. Further, in series [1], the “antiviral activity against WSN influenza virus” value is reported as “active”. For the same compound, in series [1], the “cell survival (MTT), D + V” value is “++++ (key: 0˜25% cell survival is recorded as +/−; 25˜50% cell survival is recorded as +; 50˜75% cell survival is recorded as ++; 75˜100% cell survival is recorded as +++; >100% cell survival is recorded as ++++)”.

On to `CCOC(=O)C1=C[C@@H](OC(CC)CC)[C@H](NC(C)=O)[C@@H](N)C1` [Tamiflu], for which the “survival rate of mice” value is 100% in the series with H1N1 WSN viral strain and 46.7% in the series with H1N1 WSN viral strain (0.1 mg/kg).
